For assay [1], the system named is C. albicans CAF2. Nature of the assay: Growth inhibition of C. albicans by caspofungin (MIC50). It counts as cell-based. The note with it: C. albicans CAF2 grown overnight in dilutions of CF. As to the method: (§1) Fungi were grown overnight in YPD rich medium for yeast-form growth and RPMI 1640 for hyphal growth. C. albicans was grown at 37° C.; S. cerevisiae was grown at 30° C. For CF treatment, overnight cultures of C. albicans CAF2 were diluted 1:1,000 into fresh YPD or RPMI 1640 containing dilutions of CF (caspofungin acetate, Candidas formulation, Merck, Whitehouse Station, N.J., United States) and grown overnight. […] For viability, cells were stained with propidium iodide (Sigma, St. Louis, Mo., United States).

Assay [2] deals with wild-type C. albicans (CAF2). Nature of the assay: Viability by propidium iodide staining / microscopic examination. In kind it is cell-based. As to the method: as §1
Cultures grown at one-quarter and one-eighth of the CF MIC50 (minimal inhibitory concentration to inhibit 50% of the organisms) were stained with anti-β-glucan antibody and Cy3-labeled secondary antibody (FIGS. 2A and D) for visualization by microscopy or with PE-labeled secondary antibody (FIG. 2B) for FACS quantification. […] Concurrently, cells were labeled briefly with propidium iodide to assess viability and visualized by epifluorescence microscopy or quantified by FACS (FIG. 2C). Cells grown overnight in YPD with or without CF were UV-inactivated and then exposed to BMDMs at a yeast:macrophage ratio of 10:1. Supernatants were taken at 6 h and assayed for TNFα (FIG. 2E).

Assay [3] deals with wild-type C. albicans (CAF2). Nature of the assay: β-glucan exposure: anti-β-glucan antibody staining, microscopy and FACS. In kind it is cell-based. As to conditions: for Mean fluorescence intensity (MFI), anti-β-glucan staining: FACS with PE-labeled secondary antibody. As to the method:
as §1
Fungi were grown overnight, washed, blocked in PBS+2% BSA, and stained with either the anti-β-glucan antibody (followed by Cy3- or PE-labeled secondary antibody), Alexa Fluor-labeled Dectin-CRD, or Dectin-CRD-anti-Myc. Staining with antibody and Dectin-CRD is described above for the screen. For staining with Dectin-CRD-anti-Myc, Dectin-CRD was preincubated with FITC-labeled anti-Myc (Invitrogen) at a ratio of 3.4 μg of Dectin-CRD+10 μl of anti-Myc, and then added to fungi at 1:100 on ice. Preincubation of Dectin-CRD with anti-Myc creates a probe with the same approximate size as the anti-β-glucan antibody but with the specificity of Dectin-1. Images of stained cells were taken using a Nikon TE2000-S microscope (Nikon, Tokyo, Japan) equipped with Spot RT camera (Diagnostic Instruments, Sterling Heights, Mich., United States) and processed in Photoshop (Adobe Systems, Palo Alto, Calif., United States). Fluorescence was quantified on a FACScalibur cytometer (Becton-Dickinson, Palo Alto, Calif., United States); cells were gated by forward and side scatter based on wild-type cell size and shape, and mean fluorescence intensity of 20,000 labeled cells was calculated using Cellquest software (Becton-Dickinson).
Cultures grown at one-quarter and one-eighth of the CF MIC50 (minimal inhibitory concentration to inhibit 50% of the organisms) were stained with anti-β-glucan antibody and Cy3-labeled secondary antibody (FIGS. 2A and D) for visualization by microscopy or with PE-labeled secondary antibody (FIG. 2B) for FACS quantification. […]

The test system of assay [4] is β-glucan receptor. Put plainly: Laminarin preincubation of BMDMs (β-glucan receptor blocking), cytokine ELISA. In kind it is cell-based, BL/6 mice. As to the method:
RAW264.7 macrophages (ATCC, Manassas, Va., United States) were cultured in RPMI-10 (RPMI 1640 with 10% heat-inactivated fetal bovine serum and standard concentrations of penicillin-streptomycin; GIBCO, San Diego, Calif., United States). Cells were collected and plated in 24-well plates at 5×10^5 cells/well. Bone marrow derived macro-phages (BMDMs) were differentiated as described (Brown G D, et al., (2003), J Exp Med 197:1119). Briefly, bone marrow from BL/6 mice was cultured in RPMI-10 with 15% L-cell conditioned media and 25 ng/ml recombinant M-CSF (R&D Systems, Minneapolis, Minn., United States). Cells were collected after 6 d and plated in 24-well plates at 5×10^5 cells/well.
Fungi were grown overnight, washed extensively to remove any shed proteins or polysaccharides, and normalized by OD600 or hemacytometer (these two methods produced equivalent results). For S. cerevisiae, live fungi were added to RAW264.7 macrophages at equivalent effector:target (E:T) ratio of 1:5 in 24-well plates and incubated for 6 h, when supernatants were collected for ELISA. […]
In FIG. 1A, C. albicans strains were exposed to RAW264.7 macrophages at a ratio of 2:1 (yeast:macrophage), and supernatants were collected after 6 h. […] After unbound fungi were washed off, macrophages were incubated for 6 h at 37° C., and supernatants were collected for TNFα quantitation.

For assay [5], the system named is anti-β-glucan antibody. Nature of the assay: Blocking of anti-β-glucan antibody binding to gas1Δ mutant. As to conditions: S. cerevisiae gas1Δ. As to the method: Overnight cultures of strains were grown in YPD and stained with anti-β-glucan primary antibody (Biosupplies Inc., Parkville, Australia) and Cy3-labeled goat-anti-mouse secondary. […] Stained cells were adhered to clear-bottom plates with concanavalin A (Sigma) and scanned with Cellomics VTI fluorescence microscopic imager (Cellomics, Pittsburgh, Pa., United States) using Target Acquisition software (Zeiss, Oberkochen, Germany). Mean average intensity and standard deviation of average intensity measurements were used to identify strains with over two standard deviations greater β-glucan exposure. Initially matA mutant strains were screened, then the independently constructed matα counterparts were screened. […]
Fungi were grown overnight, washed, blocked in PBS+2% BSA, and stained with either the anti-β-glucan antibody (followed by Cy3- or PE-labeled secondary antibody), Alexa Fluor-labeled Dectin-CRD, or Dectin-CRD-anti-Myc. […] Fluorescence was quantified on a FACScalibur cytometer (Becton-Dickinson, Palo Alto, Calif., United States); cells were gated by forward and side scatter based on wild-type cell size and shape, and mean fluorescence intensity of 20,000 labeled cells was calculated using Cellquest software (Becton-Dickinson).

In the case of caspofungin acetate [CF], the MIC50 (commonly an inhibitory concentration at the 50% level, which refers to growth in some studies and to a panel of isolates in others) in assay [1] came to 2.5 ng/mL. In assay [2] (sub-inhibitory CF concentrations, YPD, propidium iodide), the viability of fungi result is recorded as “without loss of viability”. For the same substance, the “cell death of hyphae” value in assay [2] (subinhibitory CF, RPMI 1640, microscopic examination) is “did not show increased cell death”. In addition, the “Mean fluorescence intensity (MFI), anti-β-glucan staining” value is recorded as 65 in assay [3] (one-eighth the CF MIC50, YPD) and 161 in assay [3] (one-quarter the CF MIC50, YPD). Also, the “exposure of β-glucan on hyphae” value in assay [3] (subinhibitory doses of CF, RPMI 1640 (hyphal growth)) is on record as “dramatic increase”.

Consider laminarin, for which the “increased elicitation of pro-inflammatory cytokines by unmasked C. albicans mutants after laminarin preincubation” value in assay [4] (BMDMs preincubated 20 min on ice, yeast:macrophage 10:1, 6 h) is recorded as “great majority of the increased elicitation of pro-inflammatory cytokines could be blocked”. For the same substance, in assay [4] (BMDMs, 100 μg/ml laminarin, no fungi, TNFα), the “stimulation of macrophages by laminarin alone” value is listed as “does not stimulate”. Also, in assay [5], the “binding of anti-β-glucan antibody to gas1Δ mutant in presence of soluble β-glucan” value was “blocked”.

The record behind these values is patent US20080260724A1, “Drug Induced Exposure Of The Fungal Pro-Inflammatory Molecule Beta-Glucan” (priority 2005, published 2008).
